# Results as given in EP4685228A1, “MEDIUM COMPOSITION FOR PROMOTING MUSCLE CELL DIFFERENTIATION COMPRISING QUERCETIN AS ACTIVE INGREDIENT” (Industry Academic Cooperation Foundation of Yeungnam …, priority 2023, dated 2024).
# How the values were obtained:
# Assay type in all cases: cell-based
# [1] = system: Mouse myoblast cell line (C2C12); assay: muscle cell proliferation (microscope, MTS analysis); conditions: various concentrations, cultured for 4 days, FIGS. 3 and 4
# Procedure: (§1) Mouse myoblast cell line (C2C12) used was purchased from American Type Culture Collection (ATCC). Muscle stem cells were collected from leg muscles of cows, pigs, and chickens, minced, and reacted with 1% Pronase enzyme at 37°C for 2 hours, followed by centrifugation at 1,000 g for 3 minutes. After centrifugation, the supernatant was removed, and the tissue was suspended in Dulbecco's Modified Eagle's Medium (DMEM) supplemented with 1% penicillin/streptomycin (hereinafter referred to as P/S) and 10% fetal bovine serum (hereinafter referred to as FBS), and then the tissue and cells were separated through a 100 µm filter. The separated cells were centrifuged at 1,000 g for 5 minutes, the supernatant was removed, and the cells were suspended in Ham's F10 growth medium containing 1% P/S, 20% FBS, and 5 ng/mL fibroblast growth factor 2 (FGF2), after which cells were transferred to a cell culture dish and cultured at 37°C in the presence of 5% CO2.
# (§2) To identify the effect of quercetin on muscle stem cell proliferation, myoblasts and muscle stem cells being cultured in proliferation medium (Ham's F10 containing 1% P/S, 20% FBS, and 5 ng/mL FGF2) were treated with various concentrations of quercetin and cultured for 4 days. To compare proliferation rates, MTS analysis was performed. Myoblasts and muscle stem cells were cultured in a proliferation medium for 4 days, and after removing all of the medium, a culture medium in which proliferation medium and MTS reagent are mixed in a ratio of 8:2 was treated to the cells, followed by a reaction for 1 hour. The reacted culture medium was transferred to a 96-well microplate in a volume of 100 µL, and the absorbance of the culture medium contained in each well was measured at 490 nm using a microplate.
# (§3) According to the Experimental Example 2, in order to identify the effect of quercetin on muscle cell proliferation, quercetin was added at various concentrations during the proliferation culture of myoblasts and muscle stem cells, and after culturing for 4 days, observation was made under a microscope, followed by MTS analysis for comparison of the proliferation rate.
# bovine muscle stem cell [2] = assay: as above; conditions: various concentrations, cultured for 4 days, FIGS. 3 and 4
# Procedure: as §1, §2, §3
# chicken muscle stem cell [3] = assay: as above; conditions: various concentrations, cultured for 4 days, FIGS. 3 and 4
# Procedure: as §1, §2, §3
# porcine muscle stem cell [4] = assay: as above; conditions: various concentrations, cultured for 4 days, FIGS. 3 and 4
# Procedure: as §1, §2, §3
# [5] = system: Mouse myoblast cell line (C2C12); assay: muscle cell differentiation (microscope, creatine kinase activity)
# bovine muscle stem cell [6] = assay: as above; conditions: 4 days
# Procedure: as §1
# (§4) To determine the effect of quercetin on muscle stem cell differentiation, myoblasts and muscle stem cells being differentiated were treated with different concentrations of quercetin in differentiation medium ([…]) and cultured for 4 days. To compare differentiation rates, creatine kinase activity was analyzed. Myoblasts and muscle stem cells were cultured in differentiation medium for 4 days, then all media were removed, followed by washing with phosphate buffer saline (PBS), 200 µL of new saline was added, and the cells were scraped and collected. Afterwards, the cells were disrupted through sonication, and the supernatant was separated through centrifugation. For analysis of creatine kinase activity, a mixture (100 µL of buffer, 10 µL of substrate, and 1 µL of enzyme) was prepared, and 100 µL of the mixture was treated to 10 µL of the supernatant. Afterwards, the absorbance at 340 nm was measured at 20 and 25 minutes after the start of the reaction using a microplate reader, and the value of creatine kinase activity (U/L) was calculated using the following Equation 1. [formula]
# (§5) According to the Experimental Example 2, in order to identify the effect of quercetin on muscle cell differentiation, quercetin was added at various concentrations during differentiation culture of myoblasts and muscle stem cells, and after culturing for 4 days, observation was made under a microscope, followed by analysis of creatine kinase activity to compare the differentiation rate.
# chicken muscle stem cell [7] = assay: as above; conditions: 4 days
# Procedure: as §1, §4, §5
# porcine muscle stem cell [8] = assay: as above; conditions: 4 days
# Procedure: as §1, §4, §5
# [9] = system: muscle differentiation-related factors (MYOD, MYOG, and MYH); assay: gene and protein expression of muscle differentiation-related factors (real-time PCR, Western blot); conditions: 10 nM quercetin, FIG. 7
# Procedure: 1 mL of TRIzol (TRIzol™) reagent was added to the cultured cells, and the cells were crushed. 200 µLof chloroform was added to the crushed cells, and centrifugation was performed at 12,000 rpm for 10 minutes. After centrifugation, the upper clear water layer was transferred to a new tube, followed by addition of 500 µLof isopropanol. Afterwards, the mixture was mixed sufficiently and centrifuged at 12,000 rpm for 10 minutes. Thereafter, all supernatants except the RNA pellet were removed, and 1 mL of 70% ethanol was added, followed by washing. Afterwards, all ethanol was removed, and the RNA pellet was dissolved in distilled water containing diethylpyrocarbonate (hereinafter referred to as DEPC). The obtained RNA was quantified using a spectrophotometer, and then 2 µg of total RNA was reacted with reverse transcriptase to synthesize cDNA.
# To identify an effect of quercetin on gene expression of muscle differentiation-related factors [myoblast determination protein 1 (hereinafter referred to as MYOD), myogenin (hereinafter referred to as MYOG), and myosin heavy chain (hereinafter referred to as MYH)], real-time PCR was performed. Synthesized cDNA and primers designed using NCBI's primer blast tool; and reagents containing SYBR green fluorescent substance were mixed. Real-time PCR was analyzed via the 7500 real-time PCR from Applied Biosystems.
# To determine the effect of quercetin on the protein expression of muscle differentiation-related factors (MYOD, MYOG, and MYH), Western blot was performed. All media of cells being cultured were removed and washed with saline solution. A mixture containing RIPA buffer and 1% protease inhibitor was added to the cells and scraped. After centrifugation at 12,000 rpm for 10 minutes, the supernatant was recovered and quantified using a spectrophotometer. 60 µg of the extracted protein was electrophoresed on a 10% acrylamide gel and transferred to a polyvinylidene fluoride (PVDF) membrane (Milipore). Blocking was performed for 1 hour in tris-buffered saline (TBS) buffer containing 3% skim milk and 1% surfactant (tween-20), and the primary antibody was added. After reacting for 16 hours at 4°C, washing was performed three times for 10 minutes in TBS buffer containing 1% surfactant (Tween-20), followed by a reaction with the secondary antibody for 1 hour at room temperature. Afterwards, washing was performed three times for 10 minutes in TBS buffer containing 1% surfactant (tween-20), followed by development after adding Super Signal West Pico Chemiluminescent Substrate.
# According to the above Experimental Example 4, to identify the effect of quercetin on the expression of factors related to muscle differentiation, 10 nM quercetin was added to the process of differentiating myoblasts and muscle stem cells, and gene and protein expression of the factors was analyzed.
# [10] = 10 nM and 100 nM treatment groups, FIG. 5
smiles,measurement,setting,value
O=c1c(O)c(-c2ccc(O)c(O)c2)oc2cc(O)cc(O)c12 [quercetin],proliferation rate,[1],no significant change
same,proliferation rate,bovine muscle stem cell [2],no significant change
same,proliferation rate,chicken muscle stem cell [3],no significant change
same,proliferation rate,porcine muscle stem cell [4],no significant change
same,diameter of myotubes,"[5]; mouse myoblast, 10 nM and 100 nM treatment groups, 4 days, FIG. 5",increased
same,creatine kinase activity,"[5]; mouse myoblast, 10 nM and 100 nM, 4 days, FIG. 6",significantly increased
same,creatine kinase activity increase compared to the control group (Con),"[5]; mouse myoblasts, differentiation medium, quercetin 10 nM, antioxidant supplement diluted 1,000-fold, FIG. 8B",17%
same,diameter of myotubes,bovine muscle stem cell [6]; [10],increased
same,creatine kinase activity,"bovine muscle stem cell [6]; 10 nM and 100 nM, FIG. 6",significantly increased
same,diameter of myotubes,chicken muscle stem cell [7]; [10],increased
same,creatine kinase activity,"chicken muscle stem cell [7]; 10 nM and 100 nM, FIG. 6",significantly increased
same,diameter of myotubes,porcine muscle stem cell [8]; [10],increased
same,creatine kinase activity,"porcine muscle stem cell [8]; 10 nM and 100 nM, FIG. 6",significantly increased
same,MYH expression,[9]; bovine muscle stem cells,significantly increased
same,MYOD expression,[9]; bovine muscle stem cells,significantly increased
same,MYOG expression,[9]; bovine muscle stem cells,significantly increased
same,MYH expression,[9]; chicken muscle stem cells,significantly increased
same,MYOG expression,[9]; chicken muscle stem cells,significantly increased
same,MYH expression,[9]; mouse myoblasts,significantly increased
same,MYOD expression,[9]; mouse myoblasts,significantly increased
same,MYOG expression,[9]; mouse myoblasts,significantly increased
same,MYH expression,[9]; porcine muscle stem cells,significantly increased
same,MYOD expression,[9]; porcine muscle stem cells,significantly increased
same,MYOG expression,[9]; porcine muscle stem cells,significantly increased
